Data on 2 substances can be found in patent US8796415B2, “Inhibitors of guanine exchange factors and their use as anticancer drugs” (Centre National de la Recherche Scientifique, priority 2009, dated 2014).

Ends that are not written are not given here.

The target of one test is T1, Trio DH2-PH2 (Homo sapiens, UniProt O75962).
T1 construct: made in house
Nature of the test: [3H]-GDP dissociation assay on Trio DH2-PH2. It is filed as biochemical. Conditions: 0.15 μM GST-Trio DH2-PH2, 3 μM GST-TRIP inhibitors. The procedure:
Each residue of the active core of TRIPα (amino acids 9-36; Schmidt et al., 2002) was mutated to alanine, except cysteines which were changed into serines. All TRIPα mutants were then tested for their inhibitory activity on Trio DH2-PH2 in [3H]-GDP dissociation assays. This analysis mapped two essential regions of TRIPα, amino acids 9-20 and 28-33, where single mutations were sufficient to impair inhibition (see table 3).
The inventors next reasoned that peptides that would bind stronger to the GEF domain may also be better at inhibiting its activity. […] These clones were then produced as GST fusions and analyzed for their inhibition of Trio DH2-PH2, using the [3H]-GDP dissociation assay. […]
An aptamer library derived from TRIPα was created by PCR-based random mutagenesis of TRIPα inserted into the yeast two-hybrid vector pPC86. […] Selected peptides were then produced as GST-fusions and analyzed for their inhibition of Trio DH2-PH2 using the [3H]-GDP dissociation assay.
Radioactive [3H]-GDP dissociation assays were performed as described (Schmidt et al., 2002). […] Inhibition efficiency is expressed as the ratio between [3H]-GDP-bound RhoA at 15 and 0 min. Apparent inhibition constants (Kiapp) of TRIP-like peptides were determined from kobs values obtained at increasing peptide concentrations using the above fluorescence nucleotide exchange assay. […]

Test [1] has as its system Tgat-mediated RhoA activation. Description: RhoA activation assay (GST-RBD pull-down) in NIH3T3 cells stably expressing Tgat. The test is classed as cell-based. Conditions: NIH3T3-Tgat cells transfected with GFP-tagged peptide. The procedure: The RhoA activation in NIH3T3-Tgat cells stably transfected with GFP, GFP-TRIPE32G or GFPTRIP T16M/L17S was assayed by the GST-RBD-pulldown assay as described in FIG. 2A.
The level of GTP-bound RhoA was measured by a GST pulldown assay as described (Schmidt et al., 2002). Briefly, cell lysates were incubated with glutathione beads coated with the recombinant Rho-binding domain (RBD) of the RhoA specific effector Rhotekin (Cytoskeleton Inc.).

The target of the next test is T2, Trio DH1-PH1 (Homo sapiens, UniProt O75962).
T2 construct: Recombinant GST-Trio DH2-PH2, GST-Trio DH1-PH1, GST-Dbl (DH-PH domain); GST (N); made in house
Description: mant-GTP fluorescence kinetics specificity assay, RhoG/Trio DH1-PH1. It is filed as biochemical. Conditions: peptide 20 μM, 1 μM RhoG. The method, then: Figures represent the comparison of TRIPE32G and TRIPT16M/L17S inhibition efficiency on different GTPase/RhoGEF systems, using 1 μM GTPase and 0.5 μM GEF as follows:
In each assay, the peptides were used at a concentration of 20 μM, corresponding to a 40 fold molar excess of inhibitor versus GEF. All fluorescence kinetics assays were performed using 1 μM mant-GTP. Results are expressed as Relative Fluorescence Units (RFU) versus time. The reaction performed in the absence of GEF reflects the spontaneous exchange activity of the GTPase.
Radioactive [3H]-GDP dissociation assays were performed as described (Schmidt et al., 2002). […] Inhibition efficiency is expressed as the ratio between [3H]-GDP-bound RhoA at 15 and 0 min. Apparent inhibition constants (Kiapp) of TRIP-like peptides were determined from kobs values obtained at increasing peptide concentrations using the above fluorescence nucleotide exchange assay. Kiapp was calculated from the hyperbolic fit of kobs values as a function of the inhibitor concentration as described (Zeeh et al., 2006). TRIP-like peptide specificity was assayed using mant-GTP fluorescence kinetics (λex=360 nm, λem=460 nm) in a FLX800 Microplate Fluorescence Reader (BioTek Instruments). […] The exchange reaction was initiated by addition of 1 μM RhoA or RhoG and monitored for 10 min.

Take “GST-TRIPE32G (AREGADGAICGYNLATLVMLGPSERVFCPLCGPCSSDIYELM; cysteine pairing not given here; also: GST fusion)”: in the test with Trio DH2-PH2, the “Inhibition efficiency on Trio DH2-PH2 compared to TRIPα” value is listed as “highest inhibition on Trio DH2-PH2”. The “inhibition of Tgat-mediated activation of RhoA in cells” value in test [1] is on record as “more efficient than TRIPT16M/L17S”. Besides, the “effect on exchange activity of Trio DH1-PH1/RhoG” value with Trio DH1-PH1 is recorded as “no effect”.

GST-TRIPT16M/L17S: the “Inhibition efficiency on Trio DH2-PH2 compared to TRIPα” value on Trio DH2-PH2 is recorded as “highest inhibition on Trio DH2-PH2”. Besides, the “inhibition of Tgat-mediated activation of RhoA in cells” value in test [1] is listed as “TRIPE32G was more efficient than TRIPT16M/L17S”. In addition, the “effect on exchange activity of Trio DH1-PH1/RhoG” value at Trio DH1-PH1 is reported as “no effect”.
